From patent publication US9850366B2, “Epdxidized fatty acid alkyl ester plasticizers and methods for making epdxidized fatty acid alkyl ester plasticizers” (Dow Global Technologies LLC, priority 2012, dated 2017)

Experiments:
[1] = format: physicochemical
Description: Solubility in PVC is determined according to American Society for Testing and Materials (“ASTM”) method D 3367-98. […] Water solubility of the epoxidized fatty acid alkyl ester is determined according to the procedures described in the Test Methods section, below. Solubility in PVC Measure solubility in PVC according to ASTM D 3367-98. Test parameters, such as the design of centrifuge tubes, soak temperature, soak time, drainage of plasticizer, and centrifuge speed to remove excess plasticizer, are optimized to be able to capture differences in plasticizer absorption and solubilities of different plasticizers in PVC. Centrifuge tubes with a 0.8 mm diameter hole at the bottom are used for the test. […] During the soak time, the plasticizer molecules wet the cell walls of PVC particles and penetrate through it due to its porosity. Once inside, the molecules start filling the void space. After the void space is completely filled with plasticizer, the PVC primary particles start absorbing the plasticizer. This absorption is relatively slow and continues until the primary particles reach saturation limit. It is therefore important to optimize the PVC/plasticizer soaking temperature and time. […] The plasticizer absorbed by PVC is measured from the weight gain of PVC (after accounting for weight gain due to plasticizer absorbed by cotton).

[2] = Solution temperature of PVC in plasticizer (DIN 53408); format: physicochemical; conditions: 0.6 g PVC in 15 mL plasticizer, heated at 1° C./min
Description: In various embodiments, the polymeric resin (such as PVC) has a solution temperature in the above-described plasticizer of less than 180° C., less than 170° C., or less than 160° C., as determined by Deutsches Institut für Normung (“DIN”) standard method 53 408.
Determine solution temperature in accordance with Deutsches Institut für Normung (“DIN”) 53408. Important test parameters such as the PVC/plasticizer amount and heating rate are optimized to be able to capture differences in solution temperature of different plasticizers in PVC. 0.6 g PVC is accurately weighed in a 20-mL glass vial and 15 mL of plasticizer is added to the PVC. The contents of the glass vial are stirred using a magnetic stirrer and heated using an oil bath at 1° C./min. A thermometer is used to record the temperature of the PVC/plasticizer mixture which is illuminated with a flash-light. When PVC is mixed with a plasticizer, a milky solution is generally obtained. As the temperature of the PVC/plasticizer mixture is raised, the PVC starts to imbibe the plasticizer and becomes translucent. As the temperature is raised further, the PVC particles swell and lose their shape forming a gel. At the solution temperature, a clear solution is obtained.

[3] = Water solubility (water content of plasticizer by Karl Fischer titration after mixing with water); format: physicochemical; conditions: Table 1; water uptake of plasticizer at room temperature
Description: Water Solubility 20 mL of plasticizer is taken in a beaker and mixed with equal volume of distilled water. The mixture is stirred vigorously at room temperature and allowed to settle in a separating funnel. The mixture forms an emulsion which takes approximately 24 hours to form separate layers of organic and aqueous phases. After 48 hours, the two layers are separated. The aqueous layer is drained and the organic layer containing plasticizer and some water is recovered. The organic layer contains water in dissolved form as well as in the fine emulsion form. This layer is centrifuged at 7000 rpm for one hour. This step separates water trapped in the plasticizer in dispersed form. The plasticizer is further analyzed for water content with the help of wet chemistry methods. Carl Fischer titration method is used to determine the water content in plasticizer.

Solubility in PVC (g/100 g PVC) [1] [g/100 g PVC] | Solution temperature (° C.) [2] [°C] | Water solubility (%) [3] [%] | Compound
34.1 | 134 |  | CCCCCCCC[C@H]1O[C@H]1CCCCCCCC(=O)OC(C)C [Sample S7]
 | 124 |  | epoxidized methyl linolenate [CS2, reference compound]
244 | 88 |  | CCCCCC1OC1CC1OC1CCCCCCCC(=O)OC (stereo not drawn) [Sample S2, epoxidized methyl linoleate]
 | 98 |  | epoxidized methyl linolenate [CS4, reference compound]
 | 114 | 0.68 | CCCCCCCCC1OC1CCCCCCCC(=O)OC (stereo not drawn) [Sample S1, epoxidized methyl oleate]
 | 98 |  | epoxidized methyl linolenate [CS3, reference compound]
